Positions of bridges follow the written chain, without caps; N, C: chain ends. Residues, ends and D or L forms follow the SMILES beside them.
Biological target: hNav1.7 (Homo sapiens, UniProt Q15858)
Test: cell-based
Details: Nav1.7 Use IC50

Chain of hNav1.7 (Q15858 whole entry, looked up): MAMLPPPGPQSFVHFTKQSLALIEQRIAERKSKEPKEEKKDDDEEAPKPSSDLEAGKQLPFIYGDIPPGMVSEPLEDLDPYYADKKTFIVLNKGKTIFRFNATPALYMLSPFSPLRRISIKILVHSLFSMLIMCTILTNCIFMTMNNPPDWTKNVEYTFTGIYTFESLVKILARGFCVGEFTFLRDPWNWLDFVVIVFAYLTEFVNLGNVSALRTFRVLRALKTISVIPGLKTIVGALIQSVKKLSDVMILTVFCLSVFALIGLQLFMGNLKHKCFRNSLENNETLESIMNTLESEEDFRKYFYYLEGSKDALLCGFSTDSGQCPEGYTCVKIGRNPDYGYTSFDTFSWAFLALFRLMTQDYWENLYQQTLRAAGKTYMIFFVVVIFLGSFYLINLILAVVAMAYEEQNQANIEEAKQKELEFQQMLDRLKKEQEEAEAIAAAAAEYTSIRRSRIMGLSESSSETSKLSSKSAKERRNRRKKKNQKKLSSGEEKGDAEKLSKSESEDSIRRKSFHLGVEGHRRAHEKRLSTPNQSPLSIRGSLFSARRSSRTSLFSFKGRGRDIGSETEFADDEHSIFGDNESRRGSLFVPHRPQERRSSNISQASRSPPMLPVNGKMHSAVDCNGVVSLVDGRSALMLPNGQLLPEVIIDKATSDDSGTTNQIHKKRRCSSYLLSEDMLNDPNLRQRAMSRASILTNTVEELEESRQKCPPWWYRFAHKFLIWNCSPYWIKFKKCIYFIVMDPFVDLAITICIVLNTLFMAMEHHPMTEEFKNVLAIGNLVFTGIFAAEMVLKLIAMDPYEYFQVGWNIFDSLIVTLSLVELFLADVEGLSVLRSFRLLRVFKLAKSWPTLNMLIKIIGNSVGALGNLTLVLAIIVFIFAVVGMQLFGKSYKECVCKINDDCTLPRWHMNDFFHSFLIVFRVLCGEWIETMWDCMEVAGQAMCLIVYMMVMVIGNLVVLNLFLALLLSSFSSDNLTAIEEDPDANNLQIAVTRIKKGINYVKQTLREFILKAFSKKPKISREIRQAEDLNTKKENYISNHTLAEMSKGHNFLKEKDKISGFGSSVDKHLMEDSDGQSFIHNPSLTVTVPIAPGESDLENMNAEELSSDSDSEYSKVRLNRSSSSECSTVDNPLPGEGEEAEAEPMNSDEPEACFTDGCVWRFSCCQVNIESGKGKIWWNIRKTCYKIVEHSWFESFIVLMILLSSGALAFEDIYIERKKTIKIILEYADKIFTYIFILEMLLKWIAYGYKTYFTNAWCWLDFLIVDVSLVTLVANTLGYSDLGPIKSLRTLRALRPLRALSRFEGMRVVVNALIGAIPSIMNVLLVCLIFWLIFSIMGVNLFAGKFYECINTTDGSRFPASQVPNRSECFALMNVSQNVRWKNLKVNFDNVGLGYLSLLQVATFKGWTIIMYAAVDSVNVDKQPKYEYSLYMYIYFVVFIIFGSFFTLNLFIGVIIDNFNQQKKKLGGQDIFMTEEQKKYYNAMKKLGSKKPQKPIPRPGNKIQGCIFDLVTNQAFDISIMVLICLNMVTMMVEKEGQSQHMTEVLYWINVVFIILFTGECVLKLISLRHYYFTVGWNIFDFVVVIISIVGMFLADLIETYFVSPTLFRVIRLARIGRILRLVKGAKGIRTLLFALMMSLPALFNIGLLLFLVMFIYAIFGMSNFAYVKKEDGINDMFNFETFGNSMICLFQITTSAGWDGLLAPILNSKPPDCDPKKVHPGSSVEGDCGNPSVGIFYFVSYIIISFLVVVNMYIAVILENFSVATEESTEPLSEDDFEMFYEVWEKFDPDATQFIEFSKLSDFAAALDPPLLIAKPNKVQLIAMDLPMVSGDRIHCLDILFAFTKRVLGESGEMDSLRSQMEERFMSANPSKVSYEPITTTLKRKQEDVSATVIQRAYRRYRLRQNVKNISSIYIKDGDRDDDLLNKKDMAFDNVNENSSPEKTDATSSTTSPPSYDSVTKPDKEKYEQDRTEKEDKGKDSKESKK

Compared with `CSCC[C@@H]1NC(=O)[C@H](Cc2ccccc2)NC(=O)CNC(=O)[C@H](CC(C)C)NC(=O)[C@@H](NC(=O)[C@@H](N)CC(=O)O)CSSC[C@@H]2NC(=O)[C@@H]3CSSC[C@@H](C(=O)N[C@@H](CCCCN)C(=O)N[C@@H](Cc4ccc(O)cc4)C(=O)N[C@H](C(=O)N[C@@H](Cc4ccccc4)C(N)=O)C(C)C)NC(=O)[C@H](Cc4c[nH]c5ccccc45)NC(=O)[C@H](CCCCN)NC(=O)[C@H](Cc4cnc[nH]4)NC(=O)[C@H]([C@@H](C)O)NC(=O)[C@H](CCCNC(=N)N)NC(=O)[C@H](CO)NC(=O)[C@H](CSSC[C@H](NC(=O)[C@H](CCCCN)NC(=O)[C@H](CCCNC(=N)N)NC1=O)C(=O)N[C@@H](CC(N)=O)C(=O)N1CCC[C@H]1C(=O)N[C@@H](CC(=O)O)C(=O)N[C@@H](CC(N)=O)C(=O)N[C@@H](CC(=O)O)C(=O)N[C@@H](CCCCN)C(=O)N3)NC(=O)[C@H](C(C)C)NC(=O)[C@H](CC(C)C)NC(=O)[C@H](CC(N)=O)NC(=O)[C@@H]1CCCN1C(=O)[C@H](CCCNC(=N)N)NC2=O` [[Asn10]GpTx-1(1-34)] (H-DCLGFMRKCNPDNDKCCRPNLVCSRTHKWCKYVF-NH2; disulfide 2-17, 9-23, 16-30), `CSCC[C@@H]1NC(=O)[C@H](Cc2ccccc2)NC(=O)CNC(=O)[C@H](CC(C)C)NC(=O)[C@@H](NC(=O)[C@@H](N)CC(=O)O)CSSC[C@@H]2NC(=O)[C@@H]3CSSC[C@@H](C(=O)N[C@@H](CCCCN)C(=O)N[C@@H](Cc4ccc(O)cc4)C(=O)N[C@H](C(=O)N[C@@H](Cc4ccccc4)C(N)=O)C(C)C)NC(=O)[C@H](Cc4c[nH]c5ccccc45)NC(=O)[C@H](CCCCN)NC(=O)[C@H](Cc4cnc[nH]4)NC(=O)[C@H]([C@@H](C)O)NC(=O)[C@H](CCCNC(=N)N)NC(=O)[C@H](CO)NC(=O)[C@H](CSSC[C@H](NC(=O)[C@H](CCCCN)NC(=O)[C@H](CCCNC(=N)N)NC1=O)C(=O)N[C@@H](CC(=O)O)C(=O)N1CCC[C@H]1C(=O)N[C@@H](CC(=O)O)C(=O)N[C@@H](CC(N)=O)C(=O)N[C@@H](CC(=O)O)C(=O)N[C@@H](CCCCN)C(=O)N3)NC(=O)[C@H](C(C)C)NC(=O)[C@H](CC(C)C)NC(=O)[C@H](CC(N)=O)NC(=O)[C@@H]1CCCN1C(=O)[C@H](CCCNC(=N)N)NC2=O` [[Asp10]GpTx-1(1-34)] (H-DCLGFMRKCDPDNDKCCRPNLVCSRTHKWCKYVF-NH2; disulfide 2-17, 9-23, 16-30) is 1.5-fold higher in IC50: 2 nM for the first, 3 nM for the second.

First: CC[C@H](C)[C@@H]1NC(=O)[C@@H]2CSSC[C@@H]3NC(=O)[C@H](C(C)C)NC(=O)[C@H](CC(C)C)NC(=O)[C@H](CC(N)=O)NC(=O)[C@@H]4CCCN4C(=O)[C@H](CCCNC(=N)N)NC(=O)[C@H](CSSC[C@H](NC(=O)[C@@H](N)CC(=O)O)C(=O)N[C@@H](CC(C)C)C(=O)NCC(=O)N[C@@H](Cc4ccccc4)C(=O)N[C@@H](CCSC)C(=O)N[C@@H](CCCNC(=N)N)C(=O)N[C@@H](CCCCN)C(=O)N2)NC(=O)[C@H](CSSC[C@@H](C(=O)N[C@@H](CCCCN)C(=O)N[C@@H](Cc2ccc(O)cc2)C(=O)N[C@H](C(=O)N[C@@H](Cc2ccccc2)C(N)=O)C(C)C)NC(=O)[C@H](Cc2c[nH]c4ccccc24)NC(=O)[C@H](CC(=O)O)NC(=O)[C@H](Cc2cnc[nH]2)NC(=O)[C@H]([C@@H](C)O)NC(=O)[C@H](CCCNC(=N)N)NC(=O)[C@H](CO)NC3=O)NC(=O)[C@H](CCCCN)NC(=O)[C@H](CC(=O)O)NC(=O)[C@H](CC(N)=O)NC(=O)[C@H](CC(=O)O)NC(=O)[C@@H]2CCCN2C1=O [[Asp28]GpTx-1(1-34)] (H-DCLGFMRKCIPDNDKCCRPNLVCSRTHDWCKYVF-NH2; disulfide 2-17, 9-23, 16-30)
Second: CSCC[C@@H]1NC(=O)[C@H](Cc2ccccc2)NC(=O)CNC(=O)[C@H](CC(C)C)NC(=O)[C@@H](NC(=O)[C@@H](N)CC(=O)O)CSSC[C@@H]2NC(=O)[C@@H]3CSSC[C@@H](C(=O)N[C@@H](CCCCN)C(=O)N[C@@H](Cc4ccc(O)cc4)C(=O)N[C@H](C(=O)N[C@@H](Cc4ccccc4)C(N)=O)C(C)C)NC(=O)[C@H](Cc4c[nH]c5ccccc45)NC(=O)[C@H](CCCCN)NC(=O)[C@H](Cc4cnc[nH]4)NC(=O)[C@H]([C@@H](C)O)NC(=O)[C@H](CCCNC(=N)N)NC(=O)[C@H](CO)NC(=O)[C@H](CSSC[C@H](NC(=O)[C@H](CCCCN)NC(=O)[C@H](CCCNC(=N)N)NC1=O)C(=O)N[C@@H](CCC(=O)O)C(=O)N1CCC[C@H]1C(=O)N[C@@H](CC(=O)O)C(=O)N[C@@H](CC(N)=O)C(=O)N[C@@H](CC(=O)O)C(=O)N[C@@H](CCCCN)C(=O)N3)NC(=O)[C@H](C(C)C)NC(=O)[C@H](CC(C)C)NC(=O)[C@H](CC(N)=O)NC(=O)[C@@H]1CCCN1C(=O)[C@H](CCCNC(=N)N)NC2=O [[Glu10]GpTx-1(1-34)] (H-DCLGFMRKCEPDNDKCCRPNLVCSRTHKWCKYVF-NH2; disulfide 2-17, 9-23, 16-30)
The IC50 of the first is 7.5-fold higher: 15 nM for the first, 2 nM for the second. The second is the more potent here.

First: CC[C@H](C)[C@@H]1NC(=O)[C@@H]2CSSC[C@@H]3NC(=O)[C@H](C(C)C)NC(=O)[C@H](CC(C)C)NC(=O)[C@H](CC(N)=O)NC(=O)[C@@H]4CCCN4C(=O)[C@H](CCCNC(=N)N)NC(=O)[C@H](CSSC[C@H](NC(=O)[C@@H](N)CC(=O)O)C(=O)N[C@@H](CC(C)C)C(=O)NCC(=O)N[C@@H](C4CCCCC4)C(=O)N[C@@H](CCSC)C(=O)N[C@@H](CCCNC(=N)N)C(=O)N[C@@H](CCCCN)C(=O)N2)NC(=O)[C@H](CSSC[C@@H](C(=O)N[C@@H](CCCCN)C(=O)N[C@@H](Cc2ccc(O)cc2)C(=O)N[C@H](C(=O)N[C@@H](Cc2ccccc2)C(N)=O)C(C)C)NC(=O)[C@H](Cc2c[nH]c4ccccc24)NC(=O)[C@H](CCCCN)NC(=O)[C@H](Cc2cnc[nH]2)NC(=O)[C@H]([C@@H](C)O)NC(=O)[C@H](CCCNC(=N)N)NC(=O)[C@H](CO)NC3=O)NC(=O)[C@H](CCCCN)NC(=O)[C@H](CC(=O)O)NC(=O)[C@H](CC(N)=O)NC(=O)[C@H](CC(=O)O)NC(=O)[C@@H]2CCCN2C1=O [[Chg5]GpTx-1(1-34)]
Second: CC[C@H](C)[C@@H]1NC(=O)[C@@H]2CSSC[C@@H]3NC(=O)[C@H](C(C)C)NC(=O)[C@H](CC(C)C)NC(=O)[C@H](CC(N)=O)NC(=O)[C@@H]4CCCN4C(=O)[C@H](CCCNC(=N)N)NC(=O)[C@H](CSSC[C@H](NC(=O)[C@@H](N)CC(=O)O)C(=O)N[C@@H](CC(C)C)C(=O)NCC(=O)N[C@@H](Cc4ccccc4)C(=O)N[C@@H](CCSC)C(=O)N[C@@H](CCCNC(=N)N)C(=O)N[C@@H](CCCCN)C(=O)N2)NC(=O)[C@H](CSSC[C@@H](C(=O)N[C@@H](CCCCN)C(=O)N[C@@H](Cc2ccc(O)cc2)C(=O)N[C@H](C(=O)N[C@@H](Cc2ccccc2)C(N)=O)C(C)C)NC(=O)[C@H](Cc2c[nH]c4ccccc24)NC(=O)[C@H](CCCCN)NC(=O)[C@H](Cc2cnc[nH]2)NC(=O)[C@H]([C@@H](C)O)NC(=O)[C@H](CCCNC(=N)N)NC(=O)[C@H](CO)NC3=O)NC(=O)[C@H](CCCCN)NC(=O)[C@H](CC(=O)O)NC(=O)[C@H](CC(N)=O)NC(=O)[C@H](CC(=O)O)NC(=O)[C@H](CCC(=O)O)NC1=O [[Glu11]GpTx-1(1-34)] (H-DCLGFMRKCIEDNDKCCRPNLVCSRTHKWCKYVF-NH2; disulfide 2-17, 9-23, 16-30)
The IC50 of the first is 3.5-fold higher: 7 nM for the first, 2 nM for the second.

Same assay, conditions: read-out: Nav1.7 Use IC50

`CC[C@H](C)[C@@H]1NC(=O)[C@@H]2CSSC[C@@H]3NC(=O)[C@H](C(C)C)NC(=O)[C@H](CC(C)C)NC(=O)[C@H](CC(N)=O)NC(=O)[C@@H]4CCCN4C(=O)[C@H](CCCNC(=N)N)NC(=O)[C@H](CSSC[C@H](NC(=O)[C@@H](N)CC(=O)O)C(=O)N[C@@H](CC(C)C)C(=O)NCC(=O)N[C@@H](C4CCCC4)C(=O)N[C@@H](CCSC)C(=O)N[C@@H](CCCNC(=N)N)C(=O)N[C@@H](CCCCN)C(=O)N2)NC(=O)[C@H](CSSC[C@@H](C(=O)N[C@@H](CCCCN)C(=O)N[C@@H](Cc2ccc(O)cc2)C(=O)N[C@H](C(=O)N[C@@H](Cc2ccccc2)C(N)=O)C(C)C)NC(=O)[C@H](Cc2c[nH]c4ccccc24)NC(=O)[C@H](CCCCN)NC(=O)[C@H](Cc2c[nH]cn2)NC(=O)[C@H]([C@@H](C)O)NC(=O)[C@H](CCCNC(=N)N)NC(=O)[C@H](CO)NC3=O)NC(=O)[C@H](CCCCN)NC(=O)[C@H](CC(=O)O)NC(=O)[C@H](CC(N)=O)NC(=O)[C@H](CC(=O)O)NC(=O)[C@@H]2CCCN2C1=O` [[Cpg5]GpTx-1(1-34)] and `CC[C@H](C)[C@@H]1NC(=O)[C@@H]2CSSC[C@@H]3NC(=O)[C@H](C(C)C)NC(=O)[C@H](CC(C)C)NC(=O)[C@H](CC(N)=O)NC(=O)[C@@H]4CCCN4C(=O)[C@H](CCCNC(=N)N)NC(=O)[C@H](CSSC[C@H](NC(=O)[C@@H](N)CC(=O)O)C(=O)N[C@@H](CC(C)C)C(=O)NCC(=O)N[C@@H](Cc4ccccc4)C(=O)N[C@@H](CCSC)C(=O)N[C@@H](CCCNC(=N)N)C(=O)N[C@@H](CCCCN)C(=O)N2)NC(=O)[C@H](CSSC[C@@H](C(=O)N[C@@H](CCCCN)C(=O)N[C@@H](Cc2ccc(O)cc2)C(=O)N[C@H](C(=O)N[C@@H](Cc2ccccc2)C(N)=O)C(C)C)NC(=O)[C@H](Cc2c[nH]c4ccccc24)NC(=O)[C@H](CCC(N)=O)NC(=O)[C@H](Cc2c[nH]cn2)NC(=O)[C@H]([C@@H](C)O)NC(=O)[C@H](CCCNC(=N)N)NC(=O)[C@H](CO)NC3=O)NC(=O)[C@H](CCCCN)NC(=O)[C@H](CC(=O)O)NC(=O)[C@H](CC(N)=O)NC(=O)[C@H](CC(=O)O)NC(=O)[C@@H]2CCCN2C1=O` [[Gln28]GpTx-1(1-34)] (H-DCLGFMRKCIPDNDKCCRPNLVCSRTHQWCKYVF-NH2; disulfide 2-17, 9-23, 16-30) are within 1.5-fold of each other in IC50: 5 nM for the first, 4 nM for the second.

Source: US9340590B2 (priority 2011, dated 2016)
